One molecule from patent US20110020312A1, “METHODS FOR TREATMENT OF METABOLIC DISORDERS USING EPIMETABOLIC SHIFTERS, MULTIDIMENSIONAL INTRACELLULAR MOLECULES, OR ENVIRONMENTAL INFLUENCERS” (priority 2009, published 2011) can be followed below.

What all share (type): cell-based
The test system of one data set is Melanoma cells. As to the kind of experiment: Cell proliferation assay (live cell count) of building block combinations. As to the method: Cell Proliferation Assay of the Combination of 4-Hydroxy-Benzoate with Benzoquinone: This set of experiments used a cell proliferation assay to assess the effect of combining different building block molecules on cell proliferation.
The first study examined the effect of combining 4-Hydroxy-Benzoate with Benzoquinone. Cells were incubated for 48 hours, after which a cell count was performed for the live cells. Each test group was compared to the control, and each combination groups were compared to Benzoquinone control. The compounds were statistically analyzed for the addition of Benzoquinone.
Additional studies were performed testing additional molar ratios. For the first test 4-Hydroxybenzoic were tested at concentrations of 500 nM, 1 μM, and 50 μM. These concentrations were tested in combination with 2,3-Dimethoxy-5-methyl-p-benzoquinone (Benzo). The concentration of Benzo tested were 25 μM, 50 μM, and 100 μM. Melanoma cells were grown to 80% confluency and seeded in 6 well plates at a concentration of 40K cells per well. The cells were treated with CoQ10, 4-Hydroxybenzoate, Benzo, and a combination of 4-Hydroxybenzoate/Benzo.
A T-test was performed with p<0.05 as statistically significant.

The next data set deals with Bcl-2. The experiment in a line: Western blot of building block components, Bcl-2 expression in Skmel-28 melanoma cells. The settings on record: 15 μM, 24 hours. As to the method:
Skmel-28 melanoma cells were cultured in DMEM/F12 supplemented with 5% Fetal Bovine Serum (FBS) and 1× final concentration of Antibiotics. The cells were grown to 85% confluency and treated with building block components for 3, 6, 12 and 24 hours. The cells were then pelleted and a Western blot analysis was performed.
The test building block components included L-Phenylylalanine, DL-Phenylyalanine, D-Phenylylalanine, L-Tyrosine, DL-Tyrosine, D-Tyrosine, 4-Hydroxy-phenylpyruvate, phenylacetate, 3-methoxy-4-hydroxymandelate (vanillylmandelate or VMA), vanillic acid, 4-hydroxy-benzoate, pyridoxine, panthenol, mevalonic acid, Acetylglycine, Acetyl-CoA, Farnesyl, and 2,3-Dimethoxy-5-methyl-p-benzoquinone.
In the Western Blot Analysis, the cells were pelleted in cold PBS, lysed, and the protein levels were quantified using a BCA protein assay. The whole cell lysate was loaded in a 4% loading 12% running Tris-HCl gel. The proteins were then transferred to a nitrocellulose paper then blocked with a 5% milk Tris-buffered solution for 1 hour. The proteins were then exposed to primary antibodies (Bcl-2 and Caspase-3) overnight. The nitrocellulose paper was then exposed to Pico Chemilluminescent for 5 min and the protein expression was recorded. After exposure, actin was quantified using the same method. Using ImageJ the levels of protein expression were quantified. A t-Test was used to analyze for statistical significance.
Background: In western blotting, separated proteins are transferred to a membrane and probed.

Data set [1] has as its system neonatal fibroblast cells. The experiment in a line: Cell proliferation assay (coulter counter). The settings on record: HB 500 nM, 5 μM, 25 μM, alone or with benzoquinone 25, 50, 100 μM; 24 hours.
Description: A cell proliferation assay was also performed on neonatal fibroblast cells. […] The cells were trypsinized and quantified using a coulter counter.

Regarding `O=C(O)c1ccc(O)cc1` [4-Hydroxybenzoate], the “cell number vs control” value in the data set with Melanoma cells (48 hours incubation) was “significant decrease”. Moreover, the cell proliferation result with Melanoma cells (treatment medium containing HB (500 nM, 1 μM, 50 μM)) was “significant decrease”. Also, in the data set with Bcl-2, the Bcl-2 expression result is on record as “significant reduction”. Further, the “fibroblast cell number (toxicity in normal cells)” value in data set [1] is on record as “did not show a significant reduction”.
